Laboratory results: US11220534B2, “Treatment of neurological diseases” (Lancaster University Business Enterprises Limited, priority 2016, dated 2022)
Where no end group is shown, it is not given here. [ ]: non-standard residue; d: D form. Aib = CC(C)(N)C(=O)O

Columns and labels:
C57BL/6 mice given MPTP = assay: Rotarod motor control test in the MPTP Parkinson mouse model; type: in vivo; details: 10 nmol/kg i.p. once daily for 2 weeks, FIG. 3, N=6 per group
Excerpt: A standard model to induce Parkinson like symptoms in mice is the injection of the chemical (MPTP) (Li et al., 2009). This chemical impairs or kills neurons in the brain that produce dopamine. The mice develop motor impairments, and the dopaminergic neurons in the brain are reduced in numbers and function. The enzyme tyrosine hydroxylase (TH) is required to synthesise dopamine. A loss of TH signifies a loss of dopamine production (Harkavyi et al., 2008).
Adult male C57BL/6 mice were given the dopaminergic toxin MPTP (20 mg/kg in 0.1 mL of PBS i.p. at 2-h intervals of 4 doses MPTP; Sigma) or vehicle (PBS) for one day. This treatment selectively affects dopaminergic neurons and induces Parkinson-like symptoms in mice.
The dose of peptide tested was 10 nmol/kg body weight. The peptides were administered by a once-daily intraperitoneal injection for 2 weeks. Saline injections were administered as a control. Six animals per group were injected with a peptide or a saline control.
The rotarod consists of a rotating pole that accelerates over time. Mice are placed on the rod, and motor skills are tested by accelerating the rotation. As the rotation increases, animals lose grip and fall on a cushion located below the rod. […] Each animal's endurance time was recorded, and the average was calculated. Data were analysed using a one-way ANOVA with post-hoc Bonferroni tests.

APP/PS1 transgenic mice = assay: Immunohistochemical measurement of beta-amyloid plaque load in the cortex of APP/PS1 transgenic mice; type: in vivo
Excerpt: Animal models have been developed to test novel drugs. A standard model for Alzheimer's disease is transgenic mice that express human mutated genes for amyloid production that are known to induce Alzheimer's disease in humans. These APP/PS1 transgenic mice recapitulate some of the symptoms of Alzheimer's disease such as the aggregation of amyloid in the brain, memory loss and the loss of synapses (Radde et al., 2006).
The APP/PS1 mice express human Swedish mutated APP and human mutated presenilin-1 which induce Alzheimer's Disease in humans.
The dose of peptide tested was 10 nmol/kg body weight. The peptides were administered by a once-daily intraperitoneal injection for 8 weeks. Saline injections were administered as a control. Six animals per group were injected with a peptide or a saline control.
Animals (6 per group) were perfused transcardially with 30 ml of ice-cold PBS and 30 ml of ice-cold 4% paraformaldehyde to postfix the brain. The brains were removed and placed in fresh 30% sucrose solution in PBS to cryoprotect tissue and cut at a thickness of 40 μm on a cryostat. Sections were chosen according to stereological rules, with the first section taken at random and every 5th section afterwards. Between 7 and 13 sections were analysed per brain.
Immunostaining techniques were used to assess the neuronal plaque load (anti beta-amyloid rabbit polyclonal antibody (1:200, rabbit polyclonal-Invitrogen 71-5800) and of synaptophysin (polyclonal rabbit anti-synaptophysin primary antibody, 1:2000, Abcam, Cambridge, UK) to measure the amount of synapses in the cortex. Brain samples were first exposed to 99% formic acid for 7 minutes and then washed 3 times for 10 minutes in TBS. Pre-treatment with 99% formic acid is known to drastically increase the detection of beta-Amyloid in formalin-fixed brain samples. Then samples were incubated in 0.3% H2O2 (Sigma Aldrich; Cat.-No.: 516813) in TBS for 30 minutes on the shaker to deplete endogenous peroxides activity, and were 3 times washed in TBS for 10 minutes afterwards.
To increase permeability of membranes in the brain tissue, samples were exposed to 0.3% Triton X-100 (Sigma Aldrich; Cat.-No.: 516813) in TBS for 10 minutes on the shaker. Unspecific proteinophilic binding in the tissue was saturated by incubating the samples with 5% goat serum (Gibco; Cat.-No.: 16210-064) in TBS for 30 minutes on the shaker.
A primary antibody against beta-Amyloid or synaptophysin was added and incubated overnight on the shaker at 4° C. The antibody was polyclonal and raised against a synthetic beta-Amyloid 1-43 peptide in rabbit. The primary antibody was used in a final dilution of 1 to 250 in TBS containing 2% goat serum and […]. […]

YXEGTFTSDYSIYLDKQAAXEFVNWLLAGGPSSGAPPPSKRRQRRKKRGY-NH2 (Y[Aib]EGTFTSDYSIYLDKQAA[Aib]EFVNWLLAGGPSSGAPPPSKRRQRRKKRGY-NH2) [DA5, No. 12; X=aminoisobutyric acid]
impairment of motor skills (rotarod endurance time) (C57BL/6 mice given MPTP): protect mice from an impairment of motor skills induced by MPTP | beta-amyloid plaque load in the cortex (% area positive for beta amyloid in cross sections of the brain cortex) (APP/PS1 transgenic mice; 10 nmol/kg body weight, once-daily intraperitoneal injection for 8 weeks, FIG. 1, N=6 per group): reduces beta-amyloid plaque load | beta-amyloid plaque load compared with the single GIP or GLP-1 analogues (APP/PS1 transgenic mice; 10 nmol/kg i.p. once daily for 8 weeks, FIG. 1): superior to the single GIP or GLP-1 analogues
